# ChEMBL document CHEMBL3632483, “Synthesis and pharmacological evaluation of piperidine (piperazine)-substituted benzoxazole derivatives as multi-target antipsychotics” (Bioorg Med Chem Lett, 2015)
# Key:
# [1] = biological target: D(2) dopamine receptor (Rattus norvegicus, UniProt P61169); assay: Displacement of [3H]spiperone from dopaminergic D2 receptor in rat striatum homogenates after 60 mins by liquid scintillation counting
# [2] = biological target: T1, 5-hydroxytryptamine receptor 1A (Rattus norvegicus, UniProt P19327); assay: Displacement of [3H]8-OH-DPAT from 5-HT1A receptor in rat cerebral cortex homogenates after 60 mins by liquid scintillation counting; type: tissue-based
# T1 sequence (P19327 whole entry): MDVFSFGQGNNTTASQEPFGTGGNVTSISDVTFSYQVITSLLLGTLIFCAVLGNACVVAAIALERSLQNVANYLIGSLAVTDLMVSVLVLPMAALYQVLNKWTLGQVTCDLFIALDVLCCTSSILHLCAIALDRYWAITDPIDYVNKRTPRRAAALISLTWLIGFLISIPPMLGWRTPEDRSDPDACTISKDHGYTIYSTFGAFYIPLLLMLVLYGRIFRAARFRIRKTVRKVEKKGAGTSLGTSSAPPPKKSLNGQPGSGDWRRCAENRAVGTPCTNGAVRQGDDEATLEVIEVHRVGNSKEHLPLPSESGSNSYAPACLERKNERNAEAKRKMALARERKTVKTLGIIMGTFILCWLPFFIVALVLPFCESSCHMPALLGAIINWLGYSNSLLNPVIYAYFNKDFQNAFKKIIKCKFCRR
# [3] = biological target: 5-hydroxytryptamine receptor 2A (Rattus norvegicus, UniProt P14842); assay: Displacement of [3H]ketanserine from 5-HT2A receptor in rat cerebral cortex homogenates after 60 mins by liquid scintillation counting; type: tissue-based
# Chain of 5-hydroxytryptamine receptor 2A (P14842 whole entry): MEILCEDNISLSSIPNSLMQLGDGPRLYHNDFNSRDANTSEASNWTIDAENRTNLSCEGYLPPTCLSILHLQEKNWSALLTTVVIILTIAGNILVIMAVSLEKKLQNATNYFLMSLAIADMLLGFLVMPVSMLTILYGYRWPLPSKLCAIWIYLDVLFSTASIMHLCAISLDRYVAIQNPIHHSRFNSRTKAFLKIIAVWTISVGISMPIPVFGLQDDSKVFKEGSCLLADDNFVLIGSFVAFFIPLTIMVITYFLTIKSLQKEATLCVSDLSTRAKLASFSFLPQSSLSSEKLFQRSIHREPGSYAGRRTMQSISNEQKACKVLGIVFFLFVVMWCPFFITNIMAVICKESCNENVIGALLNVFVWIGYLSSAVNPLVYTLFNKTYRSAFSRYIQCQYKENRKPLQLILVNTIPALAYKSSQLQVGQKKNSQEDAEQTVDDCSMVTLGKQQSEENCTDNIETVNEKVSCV
# [4] = biological target: Voltage-gated inwardly rectifying potassium channel KCNH2 (Homo sapiens, UniProt Q12809); assay: Inhibition of human ERG expressed in HEK293 cells by whole-cell patch clamp method; type: cell-based
# Chain of Voltage-gated inwardly rectifying potassium channel KCNH2 (Q12809 whole entry): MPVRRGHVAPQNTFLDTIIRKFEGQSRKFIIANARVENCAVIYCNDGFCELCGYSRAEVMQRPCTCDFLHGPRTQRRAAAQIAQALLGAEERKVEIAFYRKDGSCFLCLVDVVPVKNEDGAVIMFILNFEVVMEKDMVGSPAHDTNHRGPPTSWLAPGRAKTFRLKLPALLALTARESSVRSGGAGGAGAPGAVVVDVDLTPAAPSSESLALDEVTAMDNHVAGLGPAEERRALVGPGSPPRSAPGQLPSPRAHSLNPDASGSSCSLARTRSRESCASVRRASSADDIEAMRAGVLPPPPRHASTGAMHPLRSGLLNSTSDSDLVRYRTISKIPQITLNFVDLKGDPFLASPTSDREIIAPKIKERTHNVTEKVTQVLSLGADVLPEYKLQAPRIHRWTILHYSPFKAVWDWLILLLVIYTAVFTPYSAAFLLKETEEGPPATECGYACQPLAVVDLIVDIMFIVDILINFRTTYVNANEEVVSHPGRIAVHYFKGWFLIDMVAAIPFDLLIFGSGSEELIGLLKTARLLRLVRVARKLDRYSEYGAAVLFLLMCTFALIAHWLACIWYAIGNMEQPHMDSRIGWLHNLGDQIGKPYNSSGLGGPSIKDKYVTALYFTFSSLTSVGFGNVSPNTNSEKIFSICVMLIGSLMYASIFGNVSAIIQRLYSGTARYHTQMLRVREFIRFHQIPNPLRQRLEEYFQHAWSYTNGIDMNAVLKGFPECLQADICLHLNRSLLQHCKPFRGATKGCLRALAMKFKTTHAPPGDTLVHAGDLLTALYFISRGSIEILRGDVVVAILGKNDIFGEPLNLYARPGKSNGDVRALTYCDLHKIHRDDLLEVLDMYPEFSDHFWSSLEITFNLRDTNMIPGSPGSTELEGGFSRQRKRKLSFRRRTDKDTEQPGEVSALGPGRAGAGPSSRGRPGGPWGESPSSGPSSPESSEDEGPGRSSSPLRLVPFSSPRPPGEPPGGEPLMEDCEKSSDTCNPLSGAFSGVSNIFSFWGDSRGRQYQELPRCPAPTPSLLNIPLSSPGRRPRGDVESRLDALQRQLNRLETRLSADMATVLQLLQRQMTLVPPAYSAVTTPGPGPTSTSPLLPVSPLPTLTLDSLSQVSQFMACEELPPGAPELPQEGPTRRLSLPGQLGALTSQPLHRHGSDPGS
# [5] = Acute toxicity in Sprague-Dawley rat; type: organism-based; details: in vivo
# [6] = system: Mus musculus; assay: Antipsychotic activity in po dosed Chinese Kun Ming mouse assessed as inhibition of apomorphine-induced climbing administered 30 mins before apomorphine challenge measured up to 30 mins; type: functional
# [7] = system: Mus musculus; assay: Antipsychotic activity in po dosed Chinese Kun Ming mouse assessed as inhibition of DOI-induced head twitch administered 60 mins before DOI challenge measured up to 15 mins; type: functional
# [8] = system: Mus musculus; assay: Toxicity in po dosed Chinese Kun Ming mouse assessed as induction of catalepsy by measuring immobility score of 30 seconds administered 30 mins before first assessment; type: organism-based; details: in vivo, 0.5 h
# [9] = system: Mus musculus; assay: Neurotoxicity in Chinese Kun Ming mouse assessed as locomotor activity by measuring total distance traveled at 0.1 mg/kg, po administered 1 hr before test measured for 10 mins (reference value: 13415.6 +/- 9555.8 millimeter); type: toxicity, organism-based; details: in vivo
# [10] = system: Mus musculus; assay: Neurotoxicity in Chinese Kun Ming mouse assessed as locomotor activity by measuring total distance traveled at 0.3 mg/kg, po administered 1 hr before test measured for 10 mins (reference value: 13415.6 +/- 9555.8 millimeter); type: toxicity, organism-based; details: in vivo
# [11] = system: Mus musculus; assay: Neurotoxicity in Chinese Kun Ming mouse assessed as locomotor activity by measuring total distance traveled at 1 mg/kg, po administered 1 hr before test measured for 10 mins (reference value: 13415.6 +/- 9555.8 millimeter); type: toxicity, organism-based; details: in vivo
# [12] = system: Mus musculus; assay: Neurotoxicity in Chinese Kun Ming mouse assessed as locomotor activity by measuring total distance traveled at 1 mg/kg, po administered 1 hr before test measured for 10 mins (reference value: 13881.4 +/- 8595.8 millimeter); type: toxicity, organism-based; details: in vivo
# [13] = system: Mus musculus; assay: Neurotoxicity in Chinese Kun Ming mouse assessed as locomotor activity by measuring total distance traveled at 3 mg/kg, po administered 1 hr before test measured for 10 mins (reference value: 13881.4 +/- 8595.8 millimeter); type: toxicity, organism-based; details: in vivo
# [14] = system: Mus musculus; assay: Neurotoxicity in Chinese Kun Ming mouse assessed as locomotor activity by measuring total distance traveled at 10 mg/kg, po administered 1 hr before test measured for 10 mins (reference value: 13881.4 +/- 8595.8 millimeter); type: toxicity, organism-based; details: in vivo
# Chain of D(2) dopamine receptor (P61169 whole entry): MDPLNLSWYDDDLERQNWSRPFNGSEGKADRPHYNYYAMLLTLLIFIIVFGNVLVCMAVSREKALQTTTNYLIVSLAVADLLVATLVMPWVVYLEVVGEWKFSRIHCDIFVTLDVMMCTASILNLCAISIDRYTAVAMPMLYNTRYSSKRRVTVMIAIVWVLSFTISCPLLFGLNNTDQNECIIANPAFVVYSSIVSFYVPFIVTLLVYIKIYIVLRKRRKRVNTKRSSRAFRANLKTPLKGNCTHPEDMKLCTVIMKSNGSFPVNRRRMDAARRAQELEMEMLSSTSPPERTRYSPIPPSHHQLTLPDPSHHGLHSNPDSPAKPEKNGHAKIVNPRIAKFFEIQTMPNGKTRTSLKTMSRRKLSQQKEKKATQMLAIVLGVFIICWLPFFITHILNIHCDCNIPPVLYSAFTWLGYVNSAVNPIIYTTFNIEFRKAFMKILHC
SMILES,Ki [1],Ki [2],Ki [3],other results
Fc1ccc2c(C3CCN(CCCOc4ccc(-c5nc6cc(Cl)ccc6o5)cc4)CC3)noc2c1,0.66 µM,> 10 µM,0.135 µM,
CC(c1ccc(OCCCN2CCC(c3noc4cc(F)ccc34)CC2)cc1)c1nc2ccccc2o1 (stereo unspecified),0.0603 µM,0.0896 µM,0.0305 µM,IC50 [4]: 1.01 µM; LD50 [5]: 614 mg/kg
Cc1cccc(N2CCN(CCCOc3ccc(-c4nc5ccccc5o4)cc3)CC2)c1C,> 10 µM,4.69 µM,2.14 µM,
Cc1nc2n(c(=O)c1CCN1CCC(c3noc4cc(F)ccc34)CC1)CCCC2 [RISPERIDONE],,,,ED50 [6]: 0.034 mg/kg; ED50 [7]: 0.045 mg/kg; ED50 [8]: 1.3 mg/kg
COc1cc(OCCCN2CCC(c3noc4cc(F)ccc34)CC2)ccc1-c1nc2ccccc2o1,1.19 µM,1.56 µM,0.0722 µM,
Fc1ccc2c(C3CCN(CCCOc4ccc(CCc5nc6ccccc6o5)cc4)CC3)noc2c1,0.0531 µM,0.0311 µM,0.0381 µM,IC50 [4]: 0.63 µM; LD50 [5]: 398 mg/kg
COc1ccccc1N1CCN(CCCOc2ccc(-c3nc4ccccc4o3)cc2)CC1,0.467 µM,0.0468 µM,0.0293 µM,
Cc1ccc2oc(-c3ccc(OCCCN4CCC(c5noc6cc(F)ccc56)CC4)cc3)nc2c1,> 10 µM,0.0763 µM,> 10 µM,
FC(F)(F)c1cccc(N2CCN(CCCOc3ccc(-c4nc5ccccc5o4)cc3)CC2)c1,> 10 µM,> 10 µM,4.48 µM,
c1ccc(N2CCN(CCCOc3ccc(-c4nc5ccccc5o4)cc3)CC2)cc1,> 10 µM,> 10 µM,4.68 µM,
O=C(CCCN1CCC(O)(c2ccc(Cl)cc2)CC1)c1ccc(F)cc1 [HALOPERIDOL],,,,Activity [9]: 8980.9 mm; Activity [10]: 3580.6 mm; Activity [11]: 744.5 mm
Fc1ccc2c(C3CCN(CCCOc4cccc(-c5nc6ccccc6o5)c4)CC3)noc2c1,> 10 µM,> 10 µM,> 10 µM,
Fc1ccc2c(C3CCN(CCCOc4ccc(-c5nc6ccccc6o5)c(F)c4)CC3)noc2c1,0.143 µM,0.232 µM,0.0237 µM,
Fc1ccc2c(C3CCN(CCCCOc4ccc(-c5nc6ccccc6o5)cc4)CC3)noc2c1,2.2 µM,0.996 µM,0.729 µM,
O=C(c1ccc(F)cc1F)C1CCN(CCCOc2ccc(-c3nc4ccccc4o3)cc2)CC1,0.408 µM,0.114 µM,0.199 µM,LD50 [5]: 369 mg/kg
c1ccc2oc(-c3ccc(OCCCN4CCC(c5nc6ccccc6o5)CC4)cc3)nc2c1,> 10 µM,0.568 µM,0.243 µM,
Clc1cccc(N2CCN(CCCOc3ccc(-c4nc5ccccc5o4)cc3)CC2)c1Cl,> 10 µM,> 10 µM,2.89 µM,
COc1ccccc1N1CCN(CCCOc2ccc(-c3nc4ccccc4[nH]3)cc2)CC1,0.0163 µM,0.258 µM,0.109 µM,
c1ccc(N2CCN(CCCOc3ccc(-c4nc5ccccc5o4)cc3)CC2)nc1,> 10 µM,1.99 µM,2.34 µM,
CN1CCN(C2=Nc3cc(Cl)ccc3Nc3ccccc32)CC1 [CLOZAPINE],,,,ED50 [6]: 3.51 mg/kg; ED50 [7]: 4.92 mg/kg; ED50 [8]: 50.5 mg/kg
c1cnc(N2CCN(CCCOc3ccc(-c4nc5ccccc5o4)cc3)CC2)nc1,0.198 µM,0.0562 µM,0.0385 µM,
Fc1ccc2c(C3CCN(CCCOc4ccc(-c5nc6ccccc6s5)cc4)CC3)noc2c1,> 10 µM,1.76 µM,1.27 µM,
O=C1CN=C(c2ccccc2Cl)c2cc([N+](=O)[O-])ccc2N1 [CLONAZEPAM],,,,Activity [12]: 13188.4 mm; Activity [13]: 4784.1 mm; Activity [14]: 655.7 mm
Cc1cc(-c2nc3ccccc3o2)ccc1OCCCN1CCC(c2noc3cc(F)ccc23)CC1,1.59 µM,2.14 µM,0.0411 µM,
c1ccc2c(c1)OCC(CN1CCN(CCCOc3ccc(-c4nc5ccccc5o4)cc3)CC1)O2 (stereo unspecified),> 10 µM,> 10 µM,1.42 µM,
c1ccc2oc(-c3ccc(OCCCN4CCC(c5nc6ccccc6s5)CC4)cc3)nc2c1,> 10 µM,0.146 µM,0.281 µM,
c1ccc2oc(-c3ccc(OCCCN4CCN(c5nsc6ccccc56)CC4)cc3)nc2c1,0.879 µM,0.97 µM,0.0169 µM,
